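Briefly, cells in 96-well plates were exposed to five compound concentrations for 48 h, and endpoints were estimated by linear interpolation. GI50 = concentration required for 50% inhibition of growth. TGI: total growth inhibition.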
Key:
Assay in all cases: NCI tumour cell line growth inhibition, 48 h
DLD-1 colon = test system: DLD-1 colon
DMS 273 small cell lung = test system: DMS 273 small cell lung
DMS 114 small cell lung = test system: DMS 114 small cell lung
HOP-18 NSCLC = test system: HOP-18 NSCLC
SNB-78 CNS = test system: SNB-78 CNS
XF 498 CNS = test system: XF 498 CNS
RXF-631 renal = test system: RXF-631 renal
LXFL 529 NSCLC = test system: LXFL 529 NSCLC
MDA-N = test system: MDA-N
P388/ADR leukemia = test system: P388/ADR leukemia
P388 leukemia = test system: P388 leukemia
SN12K1 renal = test system: SN12K1 renal

SMILES | TGI (DLD-1 colon) [µM] | TGI (DMS 273 small cell lung) [µM] | TGI (DMS 114 small cell lung) [µM] | TGI (HOP-18 NSCLC) [µM] | TGI (SNB-78 CNS) [µM] | TGI (XF 498 CNS) [µM] | TGI (LXFL 529 NSCLC) [µM] | TGI (MDA-N) [µM] | also measured
Cc1ccccc1C1SCc2nc3ccccc3n21 (stereo not given) | > 100 | > 100 | > 100 | > 100 | > 100 | – | – | – | –
Clc1cc2ns[s+]c2cc1Cl | > 56.5 | > 100 | > 100 | > 69.3 | > 100 | > 100 | > 100 | – | TGI (RXF-631 renal): > 100 µM
NC1=NN(c2ccccc2)C(=O)C1/C(=N\NC(=O)c1cc2ccccc2cc1O)C(=O)Nc1ccc(Cl)c(Cl)c1 (stereo not given) | > 100 | 40.7 | 82 | > 100 | > 100 | 71.6 | > 100 | – | –
COc1ccc(NC(=O)CC2SC(=Nc3ccc(Cl)cc3C)NC2=O)c([N+](=O)[O-])c1 (stereo not given) | > 100 | > 100 | > 100 | – | > 100 | – | > 100 | – | TGI (RXF-631 renal): > 100 µM
CC(C)(C)c1cc([Si](C)(C)C)c(C#N)c([Si](C)(C)C)c1 | > 100 | > 100 | > 100 | > 100 | > 100 | 67 | > 100 | – | –
COc1cc(OC)c(OC)cc1/C=C/c1ccc2ccccc2n1 | – | – | – | – | – | – | – | > 10 | –
OCC1OC(N2CCN(C3OC(CO)C(O)C(O)C3O)CC2)C(O)C(O)C1O (stereo not given) | – | – | – | – | – | – | – | > 100 | –
COc1ccc(C2[C@@H](Cl)C(=O)N2c2ccc(OC)cc2)cc1 (stereo not given in full) | > 100 | > 100 | > 100 | – | > 100 | – | > 100 | – | –
CC1O[C@@H]2CCCCC(=O)[C@]2(C)[C@H]1C (stereo not given in full) | > 100 | > 100 | > 100 | > 100 | > 100 | > 100 | > 100 | – | TGI (RXF-631 renal): > 100 µM
Nc1[nH]c(=S)[nH]c(=O)c1N=Nc1c(Br)cc(S(N)(=O)=O)cc1Br | – | – | – | – | – | – | – | > 100 | –
CCN(CC(O)COc1ccc2c(c1)[n+]([O-])nc(N)[n+]2[O-])C(C)=O (stereo not given) | – | – | – | – | – | – | – | > 100 | –
COc1ccc(-c2oc(C=Nc3ccccc3)c([N+](=O)[O-])c2-c2ccc(OC)c(OC)c2)cc1OC | > 100 | > 100 | > 100 | – | > 100 | > 100 | > 100 | – | –
O=c1[nH]c(C2CCCCC2)nc2ccc(Cl)cc12 | – | > 100 | > 100 | – | > 100 | – | > 100 | – | –
O=C1/C(=C/c2ccc(C(=O)O)cc2)CNC/C1=C\c1ccc(C(=O)O)cc1 | > 100 | > 100 | > 100 | > 100 | > 100 | > 100 | > 100 | – | TGI (RXF-631 renal): > 100 µM
CC#CC#C/C=C1/C=CC2(CCCCO2)O1 (stereo not given) | – | – | – | – | – | – | – | > 100 | –
CN1C(=O)CC(CC(=O)C2CCCCC2=O)CC1=O (stereo not given) | > 100 | > 100 | > 100 | > 100 | > 100 | > 100 | > 100 | – | –
CC1NCCC(CC(=O)O)C1CC(=O)O (stereo not given) | – | – | – | – | – | – | – | > 100 | –
O=Cc1cc2sc(C=O)cc2s1 | > 100 | > 100 | > 100 | – | > 100 | > 100 | > 100 | – | TGI (RXF-631 renal): > 100 µM
NC(=O)C1CCCN1Cc1ccc2c(c1)OCO2 (stereo not given) | – | – | – | – | – | – | – | > 100 | –
O=C1C2=C(c3ccccc31)C(c1ccc([N+](=O)[O-])cc1)NC(=S)N2 (stereo not given) | > 100 | > 100 | > 100 | – | – | > 100 | > 100 | – | TGI (RXF-631 renal): > 100 µM

SMILES | TGI (DLD-1 colon) [µM] | TGI (DMS 273 small cell lung) [µM] | TGI (DMS 114 small cell lung) [µM] | TGI (HOP-18 NSCLC) [µM] | TGI (SNB-78 CNS) [µM] | TGI (XF 498 CNS) [µM] | TGI (LXFL 529 NSCLC) [µM] | TGI (MDA-N) [µM] | also measured
CCCCCCCC(=O)[O-].N.N.N.N.N.[Co+3].[O-][Cl+3]([O-])([O-])[O-] | > 100 | > 100 | – | – | > 100 | – | > 100 | – | GI50 (DLD-1 colon): > 100 µM; GI50 (DMS 273 small cell lung): > 100 µM; GI50 (SNB-78 CNS): > 100 µM; GI50 (LXFL 529 NSCLC): > 100 µM
COC(=O)C1(N2CCOCC2)CCC([C@@H](c2ccccc2)C(C)[N+](=O)[O-])C1 (stereo not given in full) | – | – | – | – | – | – | – | > 100 | –
Oc1ccc(Cl)cc1N=Nc1c(O)ccc2ccccc12 | – | – | – | – | – | – | – | > 100 | –
NS(=O)(=O)c1ccc(NC(=O)Nc2cccc3ccccc23)cc1 | – | – | – | – | – | – | – | > 100 | –
CC1=NN(c2ccccc2)C(=O)C1N=Nc1ccc(Br)cc1C (stereo not given) | > 100 | > 100 | > 100 | > 100 | > 100 | – | > 100 | – | TGI (RXF-631 renal): > 100 µM
OCC1OC(NO)C(O)C(O)C1O (stereo not given) | > 100 | > 100 | – | > 100 | > 100 | > 100 | > 100 | – | TGI (RXF-631 renal): > 100 µM
C/C(COc1ccccc1)=N\NC(N)=S | > 100 | > 100 | > 100 | – | > 100 | > 100 | > 100 | – | –
C=C1CC2(CC(c3ccccc3C)OC(c3ccccc3C)C2)OC1=O (stereo not given) | – | – | – | – | – | – | – | 3.32 | –
O=S1c2ccccc2N=C(c2cccs2)CC1c1ccccc1O (stereo not given) | > 100 | – | > 100 | – | – | > 100 | > 100 | – | TGI (RXF-631 renal): > 100 µM
OC(CBr)C(O)C(O)C(O)CBr (stereo not given) | > 100 | > 100 | > 100 | > 100 | > 100 | > 100 | – | > 100 | TGI (P388/ADR leukemia): > 51.9 µM; TGI (P388 leukemia): > 32.4 µM; TGI (SN12K1 renal): > 100 µM
O=S(=O)(O)c1ccc([Se][Se]c2ccc(S(=O)(=O)O)cc2)cc1 | > 100 | > 100 | > 100 | > 100 | > 100 | > 100 | > 100 | – | –
Cc1ccc(O)c(C(=O)/C=C/c2ccccc2)c1 | – | – | – | – | – | – | – | > 100 | –
O=C(C#Cc1ccccc1)N1CCCCC1 | – | – | – | – | – | – | – | > 100 | –
Oc1ccccc1-c1cnnc(-c2ccccc2O)c1 | > 100 | – | 38.3 | 96.6 | > 100 | 32.3 | 58.2 | – | –
CCCCCCCCCCCCCC(=O)OCC1OC(=O)C(O)C1O (stereo not given) | > 100 | – | > 100 | > 100 | – | > 100 | > 100 | – | –
CCC(/C(=N/NC(=O)C[N+](C)(C)C)c1ccccc1)C1OC(=O)c2ccccc21 (stereo not given) | – | > 100 | > 100 | – | > 100 | > 100 | > 100 | – | TGI (RXF-631 renal): > 100 µM
O=C(Nc1ccn(C2CCC(COC(c3ccccc3)(c3ccccc3)c3ccccc3)O2)c(=O)n1)c1ccccc1 (stereo not given) | – | – | – | – | – | – | – | 10.5 | –
COc1ccc(/C=C2\CCC(C)(CN(C)C)C2=O)cc1Br (stereo not given) | 37.4 | 32.2 | 51.9 | > 100 | 86 | 33.1 | 31.8 | 41.2 | –
O=S1(=O)CC#CC[C@@H](CO)[C@@H](CO)CC#CC1 | > 100 | – | – | – | > 100 | > 100 | > 100 | – | –
O=C(NNC(=O)/C(=C/c1cccc([N+](=O)[O-])c1)NC(=O)c1ccccc1)Nc1ccc(Cl)cc1 | 26.7 | 26.1 | 26.9 | 34.6 | > 100 | 26.6 | 23.5 | – | TGI (RXF-631 renal): 23.8 µM

From PubChem BioAssay (NCI)
